Measurements as given in patent US6743923B2, “Antirheumatic agent” (Shionogi & Co., Ltd., priority 1997, dated 2004).

Assays:
[1] = test system: osteoclast formation in mouse myeloblast; assay: Inhibition of IL-1β-enhanced formation of osteoclast in mouse myeloblast culture; type: cell-based; settings: 2.5 ng/mL human IL-1β, six days, TRAP positive multinucleate cells
Protocol: (§1) It has been known that the enhanced formation of osteoclast is induced in the mouse myeloblast culture by addition of IL-1β and such effect is derived from PGE2 production through COX-2 induction. In order to determine inhibitory effect of the compounds against such effect, myeloblasts were collected from a ddY male mice, plated in a 48-well plate at 1×10^6/well and incubated. After culturing for six days in an α-MEM medium containing 10% fetal bovine serum, to which 2.5 ng/mL of human IL-1β and a predetermined concentration of the compounds were added, PGE2 level in the supernatant was measured by RIA kit. On the other hand, cells adhering on the plate were immobilized, and an activity staining of tartaric acid resistant acid phosphatase (TRAP), which is a marker enzyme for osteoclast, was conducted, whereby the number of TRAP positive cells having multinucleate (N>3) per well was counted as osteoclast.

[2] = test system: adjuvant articular swelling; assay: Rat adjuvant arthritis: inhibitory effect against articular swelling; type: in vivo
Protocol: A rat adjuvant arthritis model, which is commonly used in an in vivo evaluation for antirheumatic agents, was employed in this evaluation. To prepare an arthritis model, heat-killed cells of Mycobacterium butyricum (Difco) were suspended in mineral oil, and a rat was intradermally injected with 0.05 mL of 1% solution of the suspension at the plantar of left hind leg.
Using the above arthritis model, Compound Ia was administered to the animal for 22 days after injection of the adjuvant, and the articular swelling was measured from time to time to evaluate the prophylactic inhibitory effect. On the other hand, the curative effect was evaluated by administering Compound Ia to animals from Day 15 to Day 25 after injection of the adjuvant and measuring the articular swelling in injected and non-injected legs. Inhibitory and curative effects were expressed by effective dose for 30% inhibition (ED30).

[3] = test system: PGE2 production; assay: Inhibition of PGE2 production due to IL-1β stimulation in mouse myeloblast culture; type: cell-based; settings: 2.5 ng/mL human IL-1β, six days, RIA
Protocol: as §1

`CCN1CC/C(=C\c2cc(C(C)(C)C)c(O)c(C(C)(C)C)c2)S1(=O)=O` [Compound Ia, (E)-2-Ethyl-5-(3,5-di-tert-butyl-4-hydroxy)benzylidene-1,2-isothiazolidine-1,1-dioxide] was tested, and the IC50 [1] was 1300 pM, the “dose with dose-dependent and significant inhibitory effect against articular swelling, curative effect” value ([2]; curative) was no less than 3 mg/kg/day and the “dose with dose-dependent and significant inhibitory effect against articular swelling” value ([2]; prophylactic, adjuvant-injected leg) was no less than 0.3 mg/kg/day. For the same compound, the “ED30 (95% confidence limits), prophylactic effect against adjuvant articular swelling” value ([2]; rat, administered for 22 days after injection of the adjuvant) was 0.88 (0.52-1.31) mg/kg/day, the “ED30 (95% confidence limits), curative effect against adjuvant articular swelling” value ([2]; rat, administered from Day 15 to Day 25 after injection of the adjuvant) was 2.6 (1.3-6.4) mg/kg/day and the IC50 [3] was 210 pM.
